The source of these data is PMC7399337, “Biological Properties and Absolute Configuration of Flavanones From Calceolaria thyrsiflora Graham” (Frontiers in Pharmacology, 2020).

Molecules are shown by their SMILES. Values after ≈ are worked out from the molar mass of the structure shown.

One experiment relates to S. aureus ATCC. On the set-up: method as in Bravo et al., 2005. To be noted: 250 µg/ml; ref Bravo et al., 2005; cited from earlier work.
Another experiment relates to bacterial growth. More on the design: method as in Bravo et al., 2005. The settings on record: high concentrations (1,000 µg/ml); ref Bravo et al., 2005; cited from earlier work.
For the next experiment, the system named is B. subtilis. Briefly: Antibacterial MIC, broth microdilution, phytopathogens. The format is cell-based. To be noted: Bacillus subtilis; GP B. subtilis; 24 h; tested 12.5 to 1,600 µg/ml; read-out: Minimum inhibitory concentration (MIC). The protocol: (§1) The minimum inhibitory concentrations (MIC) were determined using the broth microdilution method ([Díaz et al., 2018]). Two-fold serial dilutions were added to the wells of sterile 96-well plates containing inoculated BBL™ Mueller Hinton II Broth medium suspensions of bacterial cells (1.0 x10^5 UFC/ml) of Agrobacterium tumefaciens and Bacillus subtilis. The final concentrations ranged from 12.5 to 1,600 µg/ml. Ethanol (1%) was used as the negative control and chloramphenicol (CALBIOCHEM; U.S. and Canada) was used as the positive control against both bacteria. MICs were determined according to the OD600 obtained in a Thermo Scientific Multiskan GO 96-well plate photometer. […] Assays were done in triplicate.
(In general: In broth dilution the organism is exposed to a series of concentrations in liquid medium.)

The subject of a further experiment is A. tumefaciens. The experiment is described as above. To be noted: Agrobacterium tumefaciens; GN A. tumefaciens; 24 h; tested 12.5 to 1,600 µg/ml; read-out: Minimum inhibitory concentration (MIC). The format is cell-based. The protocol:
as §1

With `O=C(O)c1cc(O)c(O)c(O)c1` [gallic acid], in the experiment with S. aureus ATCC, the “inhibition activity of S. aureus ATCC” value is on record as 67.2%. The “inhibitory activity of bacterial growth” value in the experiment with bacterial growth is “inhibitory activity”.

For `O=C(N[C@H](CO)[C@H](O)c1ccc([N+](=O)[O-])cc1)C(Cl)Cl` [Chloramphenicol], the MIC in the experiment with B. subtilis and in the experiment on A. tumefaciens was 12.5 µg/mL (≈ 38.7 µM) each time.
